Assay results reported in ChEMBL document CHEMBL4411321, “Discovery of Potent, Selective, and Orally Bioavailable Estrogen-Related Receptor-γ Inverse Agonists To Restore the Sodium Iodide Symporter Function in Anaplastic Thyroid Cancer” (J Med Chem, 2019).

How the values were obtained:
[1] = target: T1, CYP1A2 (Homo sapiens, UniProt P05177); assay: Inhibition of CYP1A2 in human liver microsomes assessed as reduction in phenacetin O-deethylase activity at 10 uM preincubated for 5 mins followed by NADPH addition and measured after 15 mins by LC-MS/MS analysis relative to control; type: ADME; conditions: probe phenacetin (O-deethylation)
T1 sequence (P05177 whole entry): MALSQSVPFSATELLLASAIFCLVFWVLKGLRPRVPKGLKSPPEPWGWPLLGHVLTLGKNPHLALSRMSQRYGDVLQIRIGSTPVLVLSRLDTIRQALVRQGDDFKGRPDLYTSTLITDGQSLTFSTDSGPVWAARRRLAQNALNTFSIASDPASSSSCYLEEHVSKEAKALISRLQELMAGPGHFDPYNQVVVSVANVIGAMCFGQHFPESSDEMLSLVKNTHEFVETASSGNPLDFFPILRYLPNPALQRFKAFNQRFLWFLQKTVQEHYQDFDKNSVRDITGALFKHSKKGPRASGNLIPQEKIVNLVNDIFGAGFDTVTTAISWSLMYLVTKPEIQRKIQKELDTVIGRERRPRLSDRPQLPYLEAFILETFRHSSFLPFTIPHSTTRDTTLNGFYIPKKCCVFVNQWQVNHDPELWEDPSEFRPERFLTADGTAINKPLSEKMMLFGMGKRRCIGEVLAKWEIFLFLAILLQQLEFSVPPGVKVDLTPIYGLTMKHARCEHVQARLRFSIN

[2] = target: CYP2C9 (Homo sapiens, UniProt P11712); assay: Inhibition of CYP2C9 in human liver microsomes assessed as reduction in tolbutamide 4-hydroxylase activity at 10 uM preincubated for 5 mins followed by NADPH addition and measured after 15 mins by LC-MS/MS analysis relative to control; type: ADME; conditions: probe tolbutamide (4-hydroxylation)
CYP2C9, sequence (P11712 whole entry): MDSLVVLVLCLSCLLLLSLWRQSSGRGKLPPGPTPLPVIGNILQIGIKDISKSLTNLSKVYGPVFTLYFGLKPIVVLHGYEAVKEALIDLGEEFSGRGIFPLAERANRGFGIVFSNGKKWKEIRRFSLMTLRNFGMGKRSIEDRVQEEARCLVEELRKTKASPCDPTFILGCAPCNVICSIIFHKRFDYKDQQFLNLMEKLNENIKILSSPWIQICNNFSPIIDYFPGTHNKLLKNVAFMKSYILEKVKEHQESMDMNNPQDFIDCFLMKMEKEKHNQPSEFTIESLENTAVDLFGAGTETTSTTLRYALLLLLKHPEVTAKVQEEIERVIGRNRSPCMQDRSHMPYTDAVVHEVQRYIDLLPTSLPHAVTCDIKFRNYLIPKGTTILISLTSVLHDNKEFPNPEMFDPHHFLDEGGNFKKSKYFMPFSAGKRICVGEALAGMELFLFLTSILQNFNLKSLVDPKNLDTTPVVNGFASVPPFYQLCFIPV

[3] = target: CYP2C19 (Homo sapiens, UniProt P33261); assay: Inhibition of CYP2C19 in human liver microsomes assessed as reduction in S-mephenytoin 4-hydroxylase activity at 10 uM preincubated for 5 mins followed by NADPH addition and measured after 15 mins by LC-MS/MS analysis relative to control; type: ADME; conditions: probe S-mephenytoin (4-hydroxylation)
CYP2C19, sequence (P33261 whole entry): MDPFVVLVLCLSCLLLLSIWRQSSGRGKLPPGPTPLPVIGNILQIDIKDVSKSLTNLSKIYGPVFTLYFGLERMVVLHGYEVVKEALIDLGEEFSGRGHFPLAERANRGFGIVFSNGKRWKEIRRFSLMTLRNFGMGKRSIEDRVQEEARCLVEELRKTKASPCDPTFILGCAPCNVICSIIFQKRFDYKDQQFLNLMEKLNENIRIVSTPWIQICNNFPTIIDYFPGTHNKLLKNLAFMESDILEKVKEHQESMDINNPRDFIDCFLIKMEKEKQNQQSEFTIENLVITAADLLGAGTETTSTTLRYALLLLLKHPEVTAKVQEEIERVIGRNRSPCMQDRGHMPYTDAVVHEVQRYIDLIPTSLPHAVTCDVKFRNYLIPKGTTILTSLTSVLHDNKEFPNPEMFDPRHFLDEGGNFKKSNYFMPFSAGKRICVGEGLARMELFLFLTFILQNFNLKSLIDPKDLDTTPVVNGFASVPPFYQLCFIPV

[4] = target: CYP2D6 (Homo sapiens, UniProt P10635); assay: Inhibition of CYP2D6 in human liver microsomes assessed as reduction in dextromethorphan O-demethylase activity at 10 uM preincubated for 5 mins followed by NADPH addition and measured after 15 mins by LC-MS/MS analysis relative to control; type: ADME; conditions: probe dextromethorphan (O-demethylation)
CYP2D6, sequence (P10635 whole entry): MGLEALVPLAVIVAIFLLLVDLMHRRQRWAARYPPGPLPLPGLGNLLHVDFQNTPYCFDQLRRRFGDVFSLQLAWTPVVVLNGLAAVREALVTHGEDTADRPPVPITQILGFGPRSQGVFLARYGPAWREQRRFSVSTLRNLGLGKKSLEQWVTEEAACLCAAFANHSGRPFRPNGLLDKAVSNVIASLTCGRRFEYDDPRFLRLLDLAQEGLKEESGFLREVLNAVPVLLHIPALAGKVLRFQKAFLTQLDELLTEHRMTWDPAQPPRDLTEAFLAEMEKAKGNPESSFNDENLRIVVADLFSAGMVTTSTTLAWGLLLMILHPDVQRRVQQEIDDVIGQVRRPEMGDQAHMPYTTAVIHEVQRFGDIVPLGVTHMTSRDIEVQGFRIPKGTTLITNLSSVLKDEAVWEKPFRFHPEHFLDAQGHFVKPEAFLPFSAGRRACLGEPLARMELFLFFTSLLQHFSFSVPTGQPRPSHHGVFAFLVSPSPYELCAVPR

[5] = target: CYP3A4 (Homo sapiens, UniProt P08684); assay: Inhibition of CYP3A4 in human liver microsomes assessed as reduction in midazolam 1-hydroxylase activity at 10 uM preincubated for 5 mins followed by NADPH addition and measured after 15 mins by LC-MS/MS analysis relative to control; type: ADME; conditions: probe midazolam (1-hydroxylation)
CYP3A4, sequence (P08684 whole entry): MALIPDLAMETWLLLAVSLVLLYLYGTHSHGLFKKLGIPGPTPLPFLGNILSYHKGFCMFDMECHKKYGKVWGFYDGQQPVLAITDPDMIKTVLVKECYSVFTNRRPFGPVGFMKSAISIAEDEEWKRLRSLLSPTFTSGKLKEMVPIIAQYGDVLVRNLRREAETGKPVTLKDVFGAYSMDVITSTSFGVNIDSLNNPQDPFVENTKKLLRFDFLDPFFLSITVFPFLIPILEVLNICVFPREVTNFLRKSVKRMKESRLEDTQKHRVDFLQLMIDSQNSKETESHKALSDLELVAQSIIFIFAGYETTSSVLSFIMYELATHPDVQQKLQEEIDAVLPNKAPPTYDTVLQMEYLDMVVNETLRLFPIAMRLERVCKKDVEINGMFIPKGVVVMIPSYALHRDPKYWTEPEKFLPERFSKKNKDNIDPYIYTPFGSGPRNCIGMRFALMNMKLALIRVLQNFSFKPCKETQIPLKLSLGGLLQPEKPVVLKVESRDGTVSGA

[6] = Metabolic stability in human liver microsomes assessed as compound remaining at 1 uM after 30 mins in presence of NADPH regeneration system by LC-MS/MS analysis; type: ADME, Microsome; conditions: read-out: Stability
[7] = Metabolic stability in rat liver microsomes assessed as compound remaining at 1 uM after 30 mins in presence of NADPH regeneration system by LC-MS/MS analysis; type: ADME, Microsome; conditions: read-out: Stability
[8] = Metabolic stability in mouse liver microsomes assessed as compound remaining at 1 uM after 30 mins in presence of NADPH regeneration system by LC-MS/MS analysis; type: ADME, Microsome; conditions: read-out: Stability
[9] = Effective permeability of the compound at 10 uM after 5 hrs by PAMPA; type: ADME; conditions: read-out: Peff
[10] = AUC in Sprague-Dawley rat at 9 to 10 mg/kg, po via gavage by LC-MS/MS analysis; type: ADME, organism-based; conditions: in vivo
[11] = AUC (0 to infinity) in Sprague-Dawley rat at 1 mg/kg, iv by LC-MS/MS analysis; type: ADME, organism-based; set-up: dose 1 mg/kg, time infinity, route intravenous; conditions: in vivo
[12] = AUC (0 to infinity) in Sprague-Dawley rat at 9 to 10 mg/kg, po via gavage by LC-MS/MS analysis; type: ADME, organism-based; conditions: in vivo
[13] = Oral bioavailability in Sprague-Dawley rat at 9 to 10 mg/kg via gavage by LC-MS/MS analysis; type: ADME, organism-based; conditions: in vivo
[14] = Cmax in Sprague-Dawley rat at 9 to 10 mg/kg, po via gavage by LC-MS/MS analysis; type: ADME, organism-based; conditions: in vivo
[15] = Tmax in Sprague-Dawley rat at 9 to 10 mg/kg, po via gavage by LC-MS/MS analysis; type: ADME, organism-based; conditions: in vivo
[16] = Terminal half life in Sprague-Dawley rat at 1 mg/kg, iv by LC-MS/MS analysis; type: ADME, organism-based; conditions: in vivo, read-out: beta t1/2 (converted)
[17] = target: T2, Steroid hormone receptor ERR1 (Homo sapiens, UniProt P11474)
T2 sequence (P11474 whole entry): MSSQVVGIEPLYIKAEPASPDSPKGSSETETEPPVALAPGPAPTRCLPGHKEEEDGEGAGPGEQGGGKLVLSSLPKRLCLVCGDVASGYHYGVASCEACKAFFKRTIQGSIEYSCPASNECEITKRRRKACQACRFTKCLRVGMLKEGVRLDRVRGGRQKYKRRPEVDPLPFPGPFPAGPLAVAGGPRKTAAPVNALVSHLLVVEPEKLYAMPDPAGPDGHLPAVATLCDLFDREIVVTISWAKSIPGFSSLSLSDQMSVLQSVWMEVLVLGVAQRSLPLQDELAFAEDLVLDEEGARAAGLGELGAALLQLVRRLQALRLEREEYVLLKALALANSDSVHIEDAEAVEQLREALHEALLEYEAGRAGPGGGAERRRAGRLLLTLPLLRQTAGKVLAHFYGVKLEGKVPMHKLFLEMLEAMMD

[18] = target: T3, Estrogen receptor (Homo sapiens, UniProt P03372)
T3 sequence (P03372 whole entry): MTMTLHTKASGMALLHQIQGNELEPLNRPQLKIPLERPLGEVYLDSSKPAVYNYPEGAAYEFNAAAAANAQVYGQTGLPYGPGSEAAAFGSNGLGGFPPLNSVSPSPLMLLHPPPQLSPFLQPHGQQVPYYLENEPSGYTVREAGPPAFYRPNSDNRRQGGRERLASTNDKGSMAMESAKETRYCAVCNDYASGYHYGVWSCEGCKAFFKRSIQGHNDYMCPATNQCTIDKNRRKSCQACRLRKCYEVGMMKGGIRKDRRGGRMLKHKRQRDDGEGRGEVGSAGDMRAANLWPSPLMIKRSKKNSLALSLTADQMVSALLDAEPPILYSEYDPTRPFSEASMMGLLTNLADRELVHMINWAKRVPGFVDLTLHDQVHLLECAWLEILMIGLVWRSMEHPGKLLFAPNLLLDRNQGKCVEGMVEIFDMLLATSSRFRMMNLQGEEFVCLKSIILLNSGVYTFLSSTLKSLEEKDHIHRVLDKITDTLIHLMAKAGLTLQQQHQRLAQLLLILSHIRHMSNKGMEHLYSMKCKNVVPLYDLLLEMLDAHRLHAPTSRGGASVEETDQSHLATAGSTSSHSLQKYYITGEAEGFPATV

[19] = target: Voltage-gated inwardly rectifying potassium channel KCNH2 (Homo sapiens, UniProt Q12809)
Voltage-gated inwardly rectifying potassium channel KCNH2, sequence (Q12809 whole entry): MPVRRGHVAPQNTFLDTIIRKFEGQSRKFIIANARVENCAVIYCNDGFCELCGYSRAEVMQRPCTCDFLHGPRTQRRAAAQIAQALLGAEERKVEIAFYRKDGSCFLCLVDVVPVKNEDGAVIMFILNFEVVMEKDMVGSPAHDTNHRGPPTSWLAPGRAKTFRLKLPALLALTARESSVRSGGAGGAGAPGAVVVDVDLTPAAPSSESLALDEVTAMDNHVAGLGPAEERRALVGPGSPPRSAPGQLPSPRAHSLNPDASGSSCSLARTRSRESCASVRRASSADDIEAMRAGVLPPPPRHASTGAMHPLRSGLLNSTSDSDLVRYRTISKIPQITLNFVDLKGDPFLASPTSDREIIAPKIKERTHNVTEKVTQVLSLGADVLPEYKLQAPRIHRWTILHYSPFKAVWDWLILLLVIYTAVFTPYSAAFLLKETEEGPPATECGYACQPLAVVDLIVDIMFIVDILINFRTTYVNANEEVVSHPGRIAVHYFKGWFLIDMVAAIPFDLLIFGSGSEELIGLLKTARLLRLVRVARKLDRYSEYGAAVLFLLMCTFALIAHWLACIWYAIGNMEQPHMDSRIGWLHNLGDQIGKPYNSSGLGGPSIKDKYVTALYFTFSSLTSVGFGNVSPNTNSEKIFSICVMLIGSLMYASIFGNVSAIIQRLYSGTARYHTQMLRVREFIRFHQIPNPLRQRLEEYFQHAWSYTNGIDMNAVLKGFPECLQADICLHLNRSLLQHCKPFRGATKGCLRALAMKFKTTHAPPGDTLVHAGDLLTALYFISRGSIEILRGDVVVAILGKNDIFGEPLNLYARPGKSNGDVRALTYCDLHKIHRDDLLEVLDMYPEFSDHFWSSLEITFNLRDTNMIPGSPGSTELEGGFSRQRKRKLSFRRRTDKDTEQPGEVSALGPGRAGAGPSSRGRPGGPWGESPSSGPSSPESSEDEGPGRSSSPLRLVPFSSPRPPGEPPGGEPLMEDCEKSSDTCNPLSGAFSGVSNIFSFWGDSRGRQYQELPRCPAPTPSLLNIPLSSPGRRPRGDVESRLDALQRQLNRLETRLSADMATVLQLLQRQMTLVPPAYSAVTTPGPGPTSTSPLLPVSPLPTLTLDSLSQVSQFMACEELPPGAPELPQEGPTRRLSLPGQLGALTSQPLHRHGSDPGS
Description: Inhibition of human ERG after 4 hrs by fluorescence polarization assay

[20] = in vivo; conditions: Sprague-Dawley, rat, iv, 1 mg/kg
[21] = in vivo; conditions: Sprague-Dawley, rat, plasma, iv, 1 mg/kg
[22] = in vivo; conditions: Sprague-Dawley, rat, iv, 1 mg/kg; remark: listed apart in the source
Description: Volume of distribution at steady state in Sprague-Dawley rat at 1 mg/kg, iv by LC-MS/MS analysis

[23] = Metabolic stability in dog liver microsomes assessed as compound remaining at 1 uM after 30 mins in presence of NADPH regeneration system by LC-MS/MS analysis; type: ADME, Canis lupus familiaris, Microsome; conditions: read-out: Stability
[24] = target: T4, Estrogen-related receptor gamma (Homo sapiens, UniProt P62508)
T4 sequence (P62508 whole entry): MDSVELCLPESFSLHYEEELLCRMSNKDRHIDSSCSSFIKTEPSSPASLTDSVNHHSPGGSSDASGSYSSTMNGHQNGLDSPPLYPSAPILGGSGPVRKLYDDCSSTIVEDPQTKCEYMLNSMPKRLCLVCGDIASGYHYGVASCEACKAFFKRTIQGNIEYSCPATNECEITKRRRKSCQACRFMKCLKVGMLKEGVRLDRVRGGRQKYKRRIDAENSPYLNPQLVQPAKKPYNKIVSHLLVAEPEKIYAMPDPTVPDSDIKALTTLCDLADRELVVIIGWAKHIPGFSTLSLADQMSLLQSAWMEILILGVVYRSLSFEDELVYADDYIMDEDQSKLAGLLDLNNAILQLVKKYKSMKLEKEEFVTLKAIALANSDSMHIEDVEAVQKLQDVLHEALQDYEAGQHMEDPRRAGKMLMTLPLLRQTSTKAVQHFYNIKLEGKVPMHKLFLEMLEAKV

[25] = target: T4, Estrogen-related receptor gamma; remark: listed apart in the source
Description: Inverse agonist activity at CMX-gal4-fused ERRgamma (unknown origin) transfected in human AD293 cells co-expressing CMV-beta galactosidase assessed as effect on beta-galactosidase activity after 24 hrs by luciferase reporter gene assay

| Compound | inhibition at 0.25 h, 10 µM [1] [%] | inhibition at 0.25 h, 10 µM [2] [%] | inhibition at 0.25 h, 10 µM [3] [%] | inhibition at 0.25 h, 10 µM [4] [%] | inhibition at 0.25 h, 10 µM [5] [%] | remaining at 0.5 h, 1 µM [6] [%] | remaining at 0.5 h, 1 µM [7] [%] | remaining at 0.5 h, 1 µM [8] [%] | Papp at 5 h, 10 µM [9] [×10⁻⁶ cm/s] | AUC [10] [µM·h] | AUC(0-inf) [11] [µM·h] | AUC(0-inf) [12] [µM·h] | bioavailability [13] [%] | Cmax [14] [nM] | Tmax [15] [h] | half-life [16] [h] | IC50 [17] [µM] | IC50 [18] [µM] | clearance [21] [mL/min/kg] | Vd [22] [L/kg] | also measured |
| --- | --- | --- | --- | --- | --- | --- | --- | --- | --- | --- | --- | --- | --- | --- | --- | --- | --- | --- | --- | --- | --- |
| Cc1ccc(/C(=C(\CCCO)c2ccccc2)c2ccc(N3CCN(C(C)C)CC3)cc2)cc1.Cl.Cl | 10.2 | 26.6 | 30.3 | 31.1 | 47 | 54.2 | 40 | 19.7 | 2.09 | 1.02 | 0.64 | 1.41 | 17.6 | 160 | 4 | 3.1 | > 10 | > 10 | 58 | 9.8 | IC50 [19]: > 30 µM; AUC [20]: 0.58 µM·h |
| CCN1CCN(c2ccc(/C(=C(/CCCO)c3ccccc3)c3ccc(C)cc3)cc2)CC1.Cl.Cl | 0 | 13 | 26 | 13.4 | 22.4 | 67.9 | 62.8 | 54.9 | 4.47 | 1.07 | 0.6 | 1.61 | 19.6 | 210 | 3 | 3.2 | > 10 | > 10 | 59 | 9.8 | remaining at 0.5 h, 1 µM [23]: 58%; IC50 [24]: 0.025 µM; IC50 [25]: 0.018 µM; AUC [20]: 0.55 µM·h |
| Cc1ccc(/C(=C(\CCCO)c2ccccc2)c2ccc(N3CCN(C)CC3)cc2)cc1.Cl.Cl | 0 | 37.7 | 27.2 | 31.8 | 29.1 | 79.2 | 65.7 | 47.6 | 4.84 | 0.45 | 0.29 | 0.66 | 18.3 | 80 | 2.8 | 2.5 | > 10 | > 10 | 139 | 30.3 | IC50 [19]: 18.9 µM; AUC [20]: 0.28 µM·h |
| CC(C)N1CCN(c2ccc(/C(=C(/CCCO)c3ccccc3)c3ccc(O)cc3)cc2)CC1.Cl.Cl | 12 | 13.9 | 18.8 | 36.5 | 33.6 | 26.6 | 32.5 | 19.9 | 0.46 |  |  |  |  |  |  |  | > 10 |  |  |  | remaining at 0.5 h, 1 µM [23]: 49.7%; IC50 [19]: 18.7 µM |
| CN(C)CCOc1ccc(/C(=C(/CCCO)c2ccccc2)c2ccc(O)cc2)cc1.Cl |  |  |  |  |  |  |  |  |  | 0.68 |  |  | 8.4 |  |  |  |  |  | 44 | 16.8 |  |
